# Data: patent publication US5618793A, “Nikkomycin analogs” (Schering Corporation, priority 1995, dated 1997)
# Read-outs that look alike come from different tables or passages of the source.
# Tests used:
# [1] = system: Resistant Strains: Candida albicans C79, C6, C8, C31, C54, C70, C104, C138, C140; Candida stellatoidea C45; experiment: microtiter minimum inhibitory concentration (MIC) test, resistant strains (MIC-R); format: cell-based; settings: geometric mean of MICs against resistant strains, YNB pH 5.4, 37° C., 48 hours, lowest concentration preventing visible growth
# Experimental: (§1) In vitro anti-fungal activity was determined in microtiter minimum inhibitory concentration (MIC) tests using Yeast Nitrogen Broth (YNB without amino acids, Difco., Detroit, Mich.) at pH 5.4. Yeasts were grown overnight in Sabouraud Dextrose Broth at 28° C. with shaking, and concentrations adjusted in sterile saline using a spectrophoptometer at 540 mμ. Compounds were dissolved in various vehicles and diluted in media to twice the final concentrations. The Cetus Pro/Pette system was used to serially dilute 50 μl in round bottom 96 well plates (Falcon, Lincoln Park, N.J.). The turbidometrically adjusted yeast suspensions were diluted 1:3,000 in YNB. These dilutions when added to the wells, produced a final inoculum of 3×10^3 /ml. Plates were incubated at 37° C. for 48 hours. MICs were defined as the lowest concentrations of compound that prevented visible growth. MICs were taken against the following organisms and expressed in the table above as the geometric mean.
# (§2) MIC-R and MIC-S mean respectively MICs taken against resistant and sensitive strains.
# Candida stellatoidea C45
# [2] = system: Sensitive Strains: Candida albicans C141, Candida sp. C2, Candida sp. C109, Candida parapsilosis C67, Candida tropicalis C112, Torulopsis glabrata C95, Candida …; format: cell-based, Candida spp., Sacchararomyces; settings: geometric mean of MICs against sensitive strains, YNB pH 5.4, 37° C., 48 hours, lowest concentration preventing visible growth
# Experimental: as §1, §2
# Candida parapsilosis C67
# Candida tropicalis C112
# Torulopsis glabrata C95
# Candida pseudotropicalis C967
# Candida guillermondii C137
# Sacchararomyces mutant C147
SMILES,MIC-R [1] [µg/mL],MIC-S [2] [µg/mL],also measured
CCCCCCCCCCCCNC(=O)C(NC(=O)C(N)Cc1cn(C)c2ccccc12)C1OC(n2ccc(=O)[nH]c2=O)C(O)C1O (centres unmarked) [Compound 25],> 256,> 256,–
CCCCCCCCCCCCNC(=O)C(NC(=O)C(N)CCc1ccc2ccccc2n1)C1OC(n2ccc(=O)[nH]c2=O)C(O)C1O (centres unmarked) [Compound 16],–,–,MIC-R ([1]; listed as drawing 72): 294 µg/mL; MIC-S ([2]; listed as drawing 72): 239 µg/mL
CCCCCCCCCCCCN(OCc1ccccc1)C(=O)C(NC(=O)C(N)Cc1c[nH]c2ccc(O)cc12)C1OC(n2ccc(=O)[nH]c2=O)C(O)C1O (centres unmarked) [Compound 14],28,119,–
CCCCCCCCCCCCNC(=O)C(NC(=O)C(N)C(C)Cc1ccc(O)cn1)C1OC(n2ccc(=O)[nH]c2=O)C(O)C1O (centres unmarked) [Compound 10],147,478,–
CCCCNC(=O)[C@@H](NC(=O)[C@@H](N)Cc1c[nH]c2ccc(O)cc12)[C@H]1O[C@@H](n2ccc(=O)[nH]c2=O)[C@H](O)[C@@H]1O [Compound 1],> 4096,> 4096,–
CCCCCCCCCCCCCCCCCCNC(=O)C(NC(=O)C(N)Cc1c[nH]c2ccc(O)cc12)C1OC(n2ccc(=O)[nH]c2=O)C(O)C1O (centres unmarked) [Compound 4],> 2048,> 2048,–
CCCCCCCCCCNC(=O)C(NC(=O)C(N)Cc1c[nH]c2ccc(O)cc12)C1OC(n2ccc(=O)[nH]c2=O)C(O)C1O (centres unmarked) [Compound 13],181,388,–
"CCCCCCCCCCCCNC(=O)C(NC(=O)C(N)Cc1csc2ccc(O)cc12)C1OC(n2ccc(=O)[nH]c2=O)C(O)C1O (single isomer, unassigned) [Compound 21]",208,158,–
"CCCCCCCCCCCCNC(=O)C(NC(=O)C(N)Cc1csc2ccc(O)cc12)C1OC(n2ccc(=O)[nH]c2=O)C(O)C1O (single isomer, unassigned) [Compound 22]",–,158,MIC-R ([1]; listed as drawing 80): > 256 µg/mL
"CCCCCCCCCCCCNC(=O)C(NC(=O)C(N)Cc1c[nH]c2ccc(O)cc12)C1OC(n2ccc(=O)[nH]c2=O)C(O)C1O (centres unmarked) [Compound 3, 6'-Dodecylamido-5-N-(5-hydroxytryptophanyl)UPOC]",23,478,–
CCCCCCCCCCCCNC(=O)C(NC(=O)C(N)C(C)Cn1ccnc1)C1OC(n2ccc(=O)[nH]c2=O)C(O)C1O (mixture of isomers) [Compound 11],316,85,–
CCCCCCCCCCCCNC(=O)C(NC(=O)C(N)CCc1ccc2ccccc2n1)C1OC(n2ccc(=O)[nH]c2=O)C(O)C1O (centres unmarked) [Compound 17],–,–,MIC-R ([1]; listed as drawing 73): 21 µg/mL; MIC-S ([2]; listed as drawing 73): 158 µg/mL
CCCCCCCCCCCCNC(=O)C(NC(=O)C(N)Cc1ccc(OC)cc1)C1OC(n2ccc(=O)[nH]c2=O)C(O)C1O (centres unmarked) [Compound 23],9.8,56,–
CCCCCCCCCCCCNC(=O)C(NC(=O)C(N)c1ccccc1)C1OC(n2ccc(=O)[nH]c2=O)C(O)C1O (centres unmarked) [Compound 24],18,194,–
CCCCCCCCCCCCN(O)C(=O)C(NC(=O)C(N)Cc1c[nH]c2ccc(O)cc12)C1OC(n2ccc(=O)[nH]c2=O)C(O)C1O (centres unmarked) [Compound 18],39,239,–
NC(Cc1c[nH]c2ccc(O)cc12)C(=O)NC(C(=O)NCc1ccccc1)C1OC(n2ccc(=O)[nH]c2=O)C(O)C1O (centres unmarked) [Compound 20],> 256,> 256,–
CC(C)=CCCC(C)=CCCC(C)=CCNC(=O)C(NC(=O)C(N)Cc1c[nH]c2ccc(O)cc12)C1OC(n2ccc(=O)[nH]c2=O)C(O)C1O (centres unmarked) [Compound 15],143,362,–
"CCCCCCCCCCCCNC(=O)C(NC(=O)[C@@H](N)C(C)Cc1ccc(OC)cc1)C1OC(n2ccc(=O)[nH]c2=O)C(O)C1O (some centres unmarked) [Compound 12, 6'-Dodecylamido-5-N-(2-S-amino-3-R,S-methyl-4-p-methoxyphenyl-butyryl) UPOC]",28,208,–
CCCCCCCCCCCCCCNC(=O)C(NC(=O)C(N)Cc1c[nH]c2ccc(O)cc12)C1OC(n2ccc(=O)[nH]c2=O)C(O)C1O (centres unmarked) [Compound 9],> 256,147,–
